US9657351B2, “MRNA-based gene expression for personalizing patient cancer therapy with an MDM2 antagonist” (Hoffmann-La Roche Inc., priority 2013, dated 2017)

Key:
[1] = tested on: Capan-1; assay: COMPOUND A In Vitro Assay; type: cell-based; conditions: Homo sapiens, Pancreas, TP53 Mutant
Summary of the method: (§1)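 For this panel of human cancer lines, COMPOUND A was applied in high-throughput screening assays and responses were converted to IC50. A line was considered sensitive when its IC50 was no more than 1, and resistant when it reached 10 or above.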

[2] = tested on: MDA-MB-134-VI; assay: COMPOUND A In Vitro Assay; type: cell-based; conditions: Homo sapiens, Breast, mammary gland, TP53 Mutant
Summary of the method: as §1

[3] = tested on: NB-4; assay: COMPOUND A In Vitro Assay; type: cell-based; conditions: Homo sapiens, Myeloblast, TP53 Mutant
Summary of the method: as §1

[4] = tested on: U-138 MG; assay: COMPOUND A In Vitro Assay; type: cell-based; conditions: Homo sapiens, U138-MG, Brain, TP53 Mutant
Summary of the method: as §1

[5] = tested on: HT-29; assay: COMPOUND A In Vitro Assay; type: cell-based; conditions: Homo sapiens, Intestine, large, colon, TP53 Mutant
Summary of the method: as §1

[6] = tested on: CEM/C2; assay: COMPOUND A In Vitro Assay; type: cell-based; conditions: Homo sapiens, Lymphocyte T, peripheral blood, TP53 Mutant
Summary of the method: as §1

[7] = tested on: 143B; assay: COMPOUND A In Vitro Assay; type: cell-based; conditions: Homo sapiens, Bone, TP53 Mutant
Summary of the method: as §1

[8] = tested on: SW626; assay: COMPOUND A In Vitro Assay; type: cell-based; conditions: Homo sapiens, Ovary, TP53 Mutant
Summary of the method: as §1

[9] = tested on: NCI-H1395; assay: COMPOUND A In Vitro Assay; type: cell-based; conditions: Homo sapiens, Lung, TP53 Wild type
Summary of the method: as §1

[10] = tested on: Detroit 562; assay: COMPOUND A In Vitro Assay; type: cell-based; conditions: Homo sapiens, Pharynx, TP53 Mutant
Summary of the method: as §1

[11] = tested on: A2058; assay: COMPOUND A In Vitro Assay; type: cell-based; conditions: Homo sapiens, Skin, TP53 Mutant
Summary of the method: as §1

[12] = tested on: Daoy; assay: COMPOUND A In Vitro Assay; type: cell-based; conditions: Homo sapiens, Brain, cerebellum, TP53 Mutant
Summary of the method: as §1

[13] = tested on: NCI-H187; assay: COMPOUND A In Vitro Assay; type: cell-based; conditions: Homo sapiens, Lung, TP53 Mutant
Summary of the method: as §1

[14] = tested on: ES2; assay: COMPOUND A In Vitro Assay; type: cell-based; conditions: Homo sapiens, ES-2, Ovary, TP53 NA
Summary of the method: as §1

[15] = tested on: HCT116; assay: COMPOUND A In Vitro Assay; type: cell-based; conditions: Homo sapiens, HCT-116, Intestine, large, colon, TP53 Wild type
Summary of the method: as §1

[16] = tested on: K-562; assay: COMPOUND A In Vitro Assay; type: cell-based; conditions: Homo sapiens, K562, Bone marrow, TP53 Mutant
Summary of the method: as §1

[17] = tested on: HepG2; assay: COMPOUND A In Vitro Assay; type: cell-based; conditions: Homo sapiens
Summary of the method: as §1

[18] = tested on: SK-N-DZ; assay: COMPOUND A In Vitro Assay; type: cell-based; conditions: Homo sapiens, Brain, TP53 Mutant
Summary of the method: as §1

[19] = tested on: MCF10DCIS•com; assay: COMPOUND A In Vitro Assay; type: cell-based; conditions: Homo sapiens, Breast, TP53 Wild type
Summary of the method: as §1

[20] = tested on: LS411N; assay: COMPOUND A In Vitro Assay; type: cell-based; conditions: Homo sapiens, LS-411N, Intestine, large, caecum, TP53 Mutant
Summary of the method: as §1

[21] = tested on: HeLa S3; assay: COMPOUND A In Vitro Assay; type: cell-based; conditions: Homo sapiens, Cervix, TP53 Mutant
Summary of the method: as §1

[22] = tested on: Raji; assay: COMPOUND A In Vitro Assay; type: cell-based; conditions: Homo sapiens, Lymphocyte B, TP53 Mutant
Summary of the method: as §1

[23] = tested on: 4-gene mRNA signature score (MDM2, XPC, BBC3, CDKN2A); assay: NO21279 4-gene mRNA signature score on treatment; type: in vivo, human
Experimental: MDM2 mRNA concentrations were assessed at Roche Molecular Systems by quantitative real-time PCR with 50 ng total RNA from MACs isolated leukemia cells from blood. TaqMan (Invitrogen, Carlsbad, Calif., USA) probes were designed to detect MDM2 mRNA and the reference mRNA, beta-glucuronidase, simultaneously using two different fluorescent reporters. Gene expression profiles were generated using Affymetrix U133 Plus 2.0 microarrays. Probset ID's for the each of the four genes on said U133 Plus 2.0 microarray are: 209375_s_at (for XPC); 205386_s_at and 211832_s_at (MDM2); 211692_s_at (BBC3); 207039_at and 211156_at (CDKN2A). The “mRNA expression level” for one of the 4 genes according to the present invention is the accumulation of all counts falling into the range of exons of a gene (e.g. MDM2). […] The predictive patient signature score according to the present invention is then calculated using the following equation: patient signature score=GMDM2+GXPC+GBBC3−GCDKN2A. G in the formula stands for log 2 transformed mRNA expression levels as obtained from patient samples, for example blood leukemia or bone marrow biopsy samples. For example, for the patient data reported in Table 9 (Example 5), G is log 2 of the mRNA probeset expression of the relevant gene as measured with Affymetrix U133 Plus 2.0 microarrays.
Risk scores are calculated for patients based on their mRNA expression values of the 4 genes at baseline prior to treatment. To ensure a rigorous and an unbiased validation, the compute of the coefficients in the test cohort is not done. However, due to the platform difference and the biological differences between patients and cell lines, in-vitro coefficients for the patient level classifier is not applied.

## CCOc1cc(C(C)(C)C)ccc1C1=N[C@@](C)(c2ccc(Cl)cc2)[C@@](C)(c2ccc(Cl)cc2)N1C(=O)N1CCN(CCCS(C)(=O)=O)CC1 [COMPOUND A]
[1]
  IC50: 20 µM
[2]
  IC50: 38 µM
[3]
  IC50: 4.7 µM
[4]
  IC50: 29 µM
[5]
  IC50: 7.4 µM
[6]
  IC50: 9.3 µM
[7]
  IC50: 15 µM
[8]
  IC50: 9.5 µM
[9]
  IC50: 1.3 µM
[10]
  IC50: 6.2 µM
[11]
  IC50: 17 µM
[12]
  IC50: 9.7 µM
[13]
  IC50: 15 µM
[14]
  IC50: 3.3 µM
[15]
  IC50: 0.5 µM
[16]
  IC50: 16 µM
[17]; HepG2, HepG2, Liver, TP53 Wild type
  IC50: 0.18 µM
[17]; HepG2, HepG2 cells
  IC50: 0.2 µM
[18]
  IC50: 5.7 µM
[19]
  IC50: 1.4 µM
[20]
  IC50: 16 µM
[21]
  IC50: 20 µM
[22]
  IC50: 3 µM
[23]; C1D2, CR patients, IQR 1.13-1.15
  median signature score over baseline: 1.15 times
[23]; C1D2, HI patients, IQR 1.04-1.10
  median signature score over baseline: 1.08 times
[23]; C1D2, MLFS patients, IQR 1.14-1.19
  median signature score over baseline: 1.17 times
[23]; C1D2, PD patients, IQR 1.05-1.16
  median signature score over baseline: 1.11 times
[23]; C1D10, CR patients, IQR 1.22-1.24
  median signature score over baseline: 1.23 times
[23]; C1D10, HI patients, IQR 1.23-1.30
  median signature score over baseline: 1.25 times
[23]; C1D10, IQR 1.88-4.23
  overall signature score over baseline: 3.05 times
[23]; C1D10, MLFS patients, IQR 1.23-1.31
  median signature score over baseline: 1.26 times
[23]; C1D10, PD patients, IQR 1.08-1.21
  median signature score over baseline: 1.14 times
